{"source": "patent US20230364121A1", "about": "(priority 2020, published 2023)", "key": {"[1]": {"system": "SARS-CoV-2 strain BavPatl", "test": "Antiviral assay in HUH7.5 cells, viral RNA by RT-qPCR", "format": "cell-based", "details": "2 days"}, "HCoV-229E [2]": {"system": "HCoV-229E", "test": "Virus-induced CPE assay, HCoV-229E in BHK-21 cells (MTT)", "format": "cell-based", "protocol": "In an initial screening, BHK-21 cells acutely infected with a seasonal human alpha coronavirus, HCoV-229E, were exposed to serial dilutions of Compound 1A.\nBHK-21 cells: Test compounds were dissolved in DMSO at 100 mM and then diluted in Minimum Essential Medium with Earle's salts (MEM-E) containing 1 mM sodium pyruvate and 25 μg/mL kanamycin, supplemented with 10% FBS (growth medium) to final concentrations of 100, 20, 4 and 0.8 μM (two […] replica plates each). After BHK-21 cells were grown to confluency in 96-well plates, growth medium was replaced with fresh maintenance medium (growth medium with 1% inactivated FBS in place of 10% FBS) containing serially diluted test compound and HCoV-229E at a multiplicity of infection (MOI) of 0.01. Uninfected cells in the presence of serially diluted compound were used to assess the cytotoxicity of compounds. After a 3-day incubation at 37° C. in a humidified 5% CO2 atmosphere, cell viability was determined by the MTT method (Pauwels, R et al. J. Virol. Methods 20(4):309-321 (1988))."}, "SARS-CoV-2 (WA1)": {"system": "SARS-CoV-2 (WA1)", "test": "microbe, parasite or virus in culture", "format": "cell-based"}, "HCoV-229E [3]": {"system": "HCoV-229E", "details": "MRC-5 cells; cited from earlier work"}, "[4]": {"system": "human coronavirus beta-OC43", "test": "microbe, parasite or virus in culture", "format": "cell-based, HCoV-OC43", "details": "unidentified human coronavirus, OC43, Huh-7, read-out: VYR EC90"}, "[5]": {"system": "human coronavirus alpha-229E", "test": "microbe, parasite or virus in culture", "format": "cell-based, HCoV-229E"}, "Huh7 cells": {"system": "Huh7 cells", "details": "human"}, "[6]": {"test": "Cytotoxicity in mock infected BHK cells (MTT)", "format": "cell-based, hamster", "details": "hamster, uninfected BHK-21 cells; BHK-21; Table 5", "protocol": "To determine the cytotoxicity, cells were seeded at an initial density of 1×10^6 cells/mL in 96 well plates containing Minimum Essential Medium with Earles's salts (MEM-E), L-glutamine, 1 mM sodium pyruvate and 25 mg/L kanamycin, supplemented with 10% fetal bovine serum. Cell cultures were then incubated at 37° C. in a humidified 5% CO2 atmosphere in the absence or presence of serial dilutions of test compounds. Cell viability was determined by the MTT method.\nUninfected cells in the presence of serially diluted compound were used to assess the cytotoxicity of compounds."}, "RD cells": {"system": "RD cells", "details": "human"}, "SARS-CoV (Urbani)": {"system": "SARS-CoV (Urbani)", "format": "cell-based", "details": "SARS-CoV-1, Huh-7, Table 5"}, "[7]": {"system": "HCoV-229E, HCoV-OC43, SARS-CoV-1 and SARS-CoV-2", "test": "organism not typed", "format": "cell-based, human coronaviruses", "details": "Huh-7, read-out: Individual determinations of EC90 values"}, "HCoV-OC43": {"system": "HCoV-OC43", "test": "microbe, parasite or virus in culture", "format": "cell-based", "details": "Betacoronavirus 1, OC43, RD"}, "MERS-CoV": {"system": "MERS-CoV", "format": "cell-based"}, "dNHBE (HAE) cells": {"system": "dNHBE (HAE) cells", "details": "human"}, "[8]": {"details": "Severe acute respiratory syndrome coronavirus 2, HAE, read-out: EC90, single replicates"}, "[9]": {"details": "Severe acute respiratory syndrome coronavirus 2, HAE, read-out: Virus Yield Reduction Assay EC90"}, "[10]": {"details": "read-out: EC90, single replicates"}, "[11]": {"details": "read-out: Virus Yield Reduction Assay EC90"}, "[12]": {"details": "read-out: Neutral Red Assay EC50"}}, "note": "Where “and” joins values, the source holds several entries; their conditions need not be identical. Identical values can stand only once. Like-named read-outs stand apart in the source and are kept apart here.", "data": [{"smiles": "CNc1nc(N)nc2c1ncn2[C@@H]1O[C@H](COP(=O)(N[C@@H](C)C(=O)OC(C)C)Oc2ccccc2)[C@@H](O)[C@@]1(C)F", "note": "(some centres unmarked) [Compound 1A]", "values": [{"measurement": "CC50", "setting": "HUH 7.5 cells", "result": "> 20000", "unit": "nM"}, {"measurement": "EC90", "setting": "[1]", "result": 3390, "unit": "nM"}, {"measurement": "EC50", "setting": "[1]; listed as AT-511", "result": "1100 nM and 1130 nM"}]}, {"smiles": "CNc1nc(N)nc2c1ncn2[C@@H]1O[C@H](CO[P@@](=O)(N[C@@H](C)C(=O)OC(C)C)Oc2ccccc2)[C@@H](O)[C@@]1(C)F", "note": "[Compound 1A]", "values": [{"measurement": "EC50", "setting": "HCoV-229E [2]; BHK-21, the 2 experiments averaged in Table 5, read-out: EC50, single experiments", "result": 2000, "unit": "nM"}, {"measurement": "EC50", "setting": "HCoV-229E [2]; Human coronavirus 229E, BHK-21, 72 h, BHK-21, dye staining, 3-day incubation, read-out: EC50", "result": 1800, "unit": "nM"}, {"measurement": "EC50", "setting": "HCoV-229E [2]; Human coronavirus 229E, BHK-21, BHK-21, the 2 experiments averaged in Table 5, read-out: EC50, single experiments", "result": 1600, "unit": "nM"}, {"measurement": "replicate EC90 determinations", "setting": "SARS-CoV-2 (WA1)", "result": "^2Value represents the mean of two replicate EC90 determinations, 0.33 and 0.41 μg/mL"}, {"measurement": "EC90", "setting": "SARS-CoV-2 (WA1); Severe acute respiratory syndrome coronavirus 2, HAE, read-out: Average EC90 from two separate HAE assays", "result": 500, "unit": "nM"}, {"measurement": "EC90", "setting": "SARS-CoV-2 (WA1); [8]", "result": 570, "unit": "nM"}, {"measurement": "EC90", "setting": "SARS-CoV-2 (WA1); [9]", "result": "0.37 µg/mL and 640 nM"}, {"measurement": "EC90", "setting": "SARS-CoV-2 (WA1); Severe acute respiratory syndrome coronavirus 2, HAE, read-out: replicate EC90 determinations", "result": 0.33, "unit": "µg/mL"}, {"measurement": "Selectivity Index", "setting": "SARS-CoV-2 (WA1); dNHBE, virus yield reduction assay", "result": ">135"}, {"measurement": "EC90", "setting": "SARS-CoV-2 (WA1); [10]", "result": "700 nM and 520 nM and 420 nM"}, {"measurement": "EC90", "setting": "SARS-CoV-2 (WA1); [11]", "result": 470, "unit": "nM"}, {"measurement": "EC50", "setting": "HCoV-229E [3]", "result": "> 100000", "unit": "nM"}, {"measurement": "EC90", "setting": "[4]", "result": 290, "unit": "nM"}, {"measurement": "Selectivity Index (CC50/EC90)", "setting": "[5]; Huh-7, Table 5", "result": ">75"}, {"measurement": "EC50", "setting": "[5]; [12]", "result": 1600, "unit": "nM"}, {"measurement": "EC90", "setting": "[5]; unidentified human coronavirus, Huh-7, 72 h, read-out: Virus Yield Reduction Assay EC90", "result": 1000, "unit": "nM"}, {"measurement": "EC50", "setting": "[5]; unidentified human coronavirus, Huh-7, 120 h, read-out: Neutral Red Assay EC50", "result": 1700, "unit": "nM"}, {"measurement": "EC50", "setting": "[5]; unidentified human coronavirus, Huh-7, read-out: Neutral Red EC50", "result": 1000, "unit": "nM"}, {"measurement": "EC90", "setting": "[5]; unidentified human coronavirus, Huh-7, read-out: VYR EC90", "result": 710, "unit": "nM"}, {"measurement": "EC50", "setting": "[5]; unidentified human coronavirus, Huh-7, read-out: Visual EC50, Huh7 cells, visual CPE", "result": 1000, "unit": "nM"}, {"measurement": "Neutral Red Assay CC50", "setting": "Huh7 cells", "result": ">50^ μg/mL"}, {"measurement": "CC50 at 3 days", "setting": "[6]", "result": "> 100000", "unit": "nM"}, {"measurement": "CC50", "setting": "RD cells", "result": "> 86000", "unit": "nM"}, {"measurement": "Selectivity Index (CC50/EC90)", "setting": "SARS-CoV (Urbani)", "result": ">250"}, {"measurement": "EC90", "setting": "SARS-CoV (Urbani); [11]", "result": 340, "unit": "nM"}, {"measurement": "EC90", "setting": "[7]", "result": "340 to 1200", "unit": "nM"}, {"measurement": "EC50", "setting": "HCoV-OC43; [12]", "result": 2800, "unit": "nM"}, {"measurement": "EC90", "setting": "HCoV-OC43; [11]", "result": 2200, "unit": "nM"}, {"measurement": "difference of activity between MERS-CoV and other CoVs", "setting": "MERS-CoV", "result": 30, "unit": "fold"}]}, {"smiles": "O=c1nc(NO)ccn1[C@@H]1O[C@H](CO)[C@@H](O)[C@H]1O", "note": "[N4-hydroxycytidine, reference compound]", "values": [{"measurement": "Selectivity Index (CC50/EC90)", "setting": "SARS-CoV-2 (WA1)", "result": ">5.1"}, {"measurement": "potency relative to Compound 1A in the same experiment (times less)", "setting": "SARS-CoV-2 (WA1)", "result": 8, "unit": "times"}, {"measurement": "EC90", "setting": "SARS-CoV-2 (WA1); [8]", "result": 4700, "unit": "nM"}, {"measurement": "EC90", "setting": "SARS-CoV-2 (WA1); [9]", "result": 3900, "unit": "nM"}, {"measurement": "EC90", "setting": "SARS-CoV-2 (WA1); [10]", "result": 3100, "unit": "nM"}, {"measurement": "CC50", "setting": "dNHBE (HAE) cells", "result": "> 19000", "unit": "nM"}]}]}
